Data as given in patent publication US5874461A, “Use of Nebivolol as an anti-atherogenic” (priority 1995, dated 1999).
Where two headings read alike, the source gives them in different places.

What was measured:
[1] = tested on: primary embryonic hippocampal cultures; assay: VitE complementation (vitE depletion) test on primary neuronal cultures; type: cell-based, rats; conditions: for rescue of survival of vitE depleted cultures: 10^-7 M and 10^-6 M
Experimental: (§1) Primary embryonic hippocampal cultures were prepared essentially as described previously (Pauwels et al., Van Aschouw, H. P., Peeters, L., Moeremans, M., Leysen, J. E. (1992) Chronic treatment with sabeluzole protects cultured rat brain neurons from the neurotoxic effects of excitatory amino acids. Synapse, 12:271-280). Hippocampal formations of rats at embryonic day 17 were dissected and dissociated in 0.05% trypsin, 0.1 mg/ml DNase I in DMEM (Dulbecco Modified Eagle Medium). Heat-inactivated horse serum (HS) was added to a concentration of 4%, and the cells were centrifuged, washed with DMEM, and resuspended in DMEM/Ham's F12 (3:1) containing 10% HS. The cells were plated at a density of 4×10^5 cells/cm^2 in poly L-lysine (0.001%) precoated multiwell-24 plates. On day 1 in culture, the medium was changed to chemically defined CDM-R12 medium (DMEM-HEPES/Ham's F12 (3:1) containing 0.26% bovine serum albumin, 30 nM sodium selenite, 3 nM 3,3',5 triiodo-L-thyronine, 0.35 μM retinol, 0.3 μM retinol acetate, 2.3 μM DL-a-tocopherol, 2.1 μM DL-a-tocopherol acetate, 3.6 μM linolenic acid, 3.6 μM linoleic acid, 0.125% human transferrin, […], 57.7 nM corticosterone, 49 U/I insulin, 0.4 μM biotin, 10 μM L-carnitine, 83 μM D(+)-galactose, 3.3 μM glutathione, 10 μM ethanolamine, 0.1 mM putrescine; Romijn, H. J., van Huizen, F., Wolters, P. S. (1984) Towards an improved serum-free, chemically defined medium for long-term culturing of cerebral cortex tissue. Neurosci. Behav. Rev., 8:301-334). Acute and prolonged pretreatment of the, cultures was essentially as described previously (Pauwels et al., 1992). Drugs were dissolved, and diluted in 10% or 1% hydroxypropyl-β-cyclodextrin such that the final concentrations of the solvent in the acute and chronic exposures were 0.1% and 0.01% respectively. Compound A as used in the following examples is [(RRSR)+(RRRS)+(SSSR) +(SSRS)]-α-[[[2-(chroman-2-yl)-2-hydroxy-ethyl]amino]methyl]-6-hydroxy-2-chromanmethanol ethanedioate (1:1).
For vitE depletion experiments, primary cultures were set up as above, but on day 1 in culture, the medium was changed to chemically defined CDM-R12 medium with (control) or without DL-a-tocopherol (vitE) and DL-a-tocopherol acetate, in the presence or absence of test coumpound. […] Addition of compounds could rescue the cultures. […] The EC50 for complementation of vitE refers to the concentration of the compound required to restore culture survival to 50% of the survival seen for the culture grown in vitE supplemented medium. Seven concentrations of each compound were tested in triplicate, the number of independent experiments is indicated in the table, and the mean EC50 -value±SD was calculated.
Primary neuronal cultures depend on the presence of the antioxidant vitE in the culture medium for survival in vitro. When vitE depleted medium is used to grow the cultures, survival drops to ±20% of control. Compounds with antioxidative properties are able to complement the lack of vitE, and as such can when added to the culture medium, rescue vitE devoid cultures. Several nebivolol derivatives were tested at 10^-7 M and 10^-6 M in the vitE depletion test on primary neuronal cultures.
When nebivolol derivatives were administered during culture, the cultures could be rescued to a certain extent. 100% vitE complementation refers to the survival of a cell culture which is indifferent from a vitE containing cell culture.
When hydroxynebivolol was administered during culture, the cultures could be rescued. The EC50 refers to the concentration at which the culture is rescued for 50%, as measured by cytoplasmic LDH activity.

[2] = tested on: primary embryonic hippocampal cultures; assay: In vitro neuroprotection against nitric oxide and superoxide radicals (inhibition of LDH release); type: cell-based, rats; conditions: for inhibition at 1 µM / inhibition at 0.1 µM: Rattus norvegicus, read-out: % neuroprotection, mean ± SD; for inhibition at 1 µM: 10^-6 M; for inhibition at 0.1 µM: 10^-7 M; for neuroprotection against DDTC or SNP: one or the other treatment paradigm
Experimental: as §1
For acute treatment, drug, or solvent was added to the cultures on day 7. After 20 min the medium was replaced with 200 μl chemically defined DMEM medium (the same composition of CDM-R12 medium but without Ham's F12) (control), or chemically defined DMEM medium containing the oxidative stress trigger. Oxidative stress triggers used were 1 mM sodium nitroprusside (SNP, a nitric oxide radical generating compound), or 7.5-10 mM diethyldithiocarbamate (DDTC, a superoxide dismutase inhibitor) and the test compound.
For prolonged pretreatment experiments, drug (concentration range 0.1 nM-10 μM) was added to the serum-free medium on days 1 and 4 of the culture. On day 7, the cultures were washed once with DMEM, and incubated with 0.2 ml chemically defined DMEM medium for 2 h at 37° C. The cells were washed and the medium was replaced by 0.2 ml chemically defined DMEM medium (control), or chemically defined DMEM medium containing the oxidative stress trigger (se above).
For both the acute experiment and the prolonged pretreatment experiment, extracellular and intracellular LDH (lactate dehydrogenase) activities were measured spectrophotometrically at 340 nm with an EPOS Analyzer 5060, according to the method of Bergmeyer (Bergmeyer, H. U. (1974) Biochemical reagents. In: Methods of Enzymatic Analysis. H. U. Bergmeyer, eds. Academic Press, New York, 2nd Ed., pp. […]). Extracellular LDH activity in the culture medium and cytoplasmic LDH activity measured after lysis of the cells in 1 ml H2 O, were used to calculate total LDH activity and % released LDH. % Neuroprotection refers to % inhibition of LDH release, where oxidative stress trigger-induced LDH release is defined as 0% protection, and basal (control) level of LDH release is defined as 100% protection.
Neuronal primary hippocampal cultures were grown in CDM-R12 medium for 7 days. Test compounds were either administered on days 1 and 4 of culture (prolonged pretreatment) or on day 7 of culture (acute treament). […]

[3] = DDTC trigger, prolonged pretreatment
[4] = SNP trigger, prolonged pretreatment

Compound	% vitE complementation ([1]; 10^-6 M) [%]	rescue of primary neuronal cultures grown in VitE depleted medium ([1]; 10^-6 M)	% vitE complementation ([1]; 10^-7 M) [%]	rescue of survival of vitE depleted cultures [1]	EC50 ([1]; Rattus norvegicus, 5 dose responses, cytoplasmic LDH activity, read-out: mean EC50 ± SD for complementation of vitE) [nM]	inhibition at 1 µM ([2]; DDTC trigger, acute treatment) [%]	inhibition at 0.1 µM ([2]; DDTC trigger, acute treatment) [%]	inhibition at 1 µM [2, 3] [%]	inhibition at 0.1 µM [2, 3] [%]	inhibition at 1 µM ([2]; SNP trigger, acute treatment) [%]	inhibition at 0.1 µM ([2]; SNP trigger, acute treatment) [%]	inhibition at 1 µM [2, 4] [%]	inhibition at 0.1 µM [2, 4] [%]	neuroprotection against DDTC or SNP [2]
Oc1ccc2c(c1)CCC(C(O)CNCC(O)C1CCc3ccccc3O1)O2 (stereo not drawn) [Compound A, [(RRSR)+(RRRS)+(SSSR) +(SSRS)]-α-[[[2-(chroman-2-yl)-2-hydroxy-ethyl]amino]methyl]-6-hydroxy-2-chromanmethanol ethanedioate (1:1)]	85 ± 21	complete rescue	27 ± 28	able to rescue survival of vitE depleted cultures to a certain extent	126 ± 88	30 ± 28	35 ± 32	< 25	< 25	< 25	< 25	38	39 ± 13	can confer neuroprotection
O[C@H](CNC[C@@H](O)[C@H]1CCc2cc(F)ccc2O1)[C@@H]1CCc2cc(F)ccc2O1 (relative stereo) [nebivolol, (RSSS) and (SRRR) α,α'-iminobis(methylene)bis[6-fluoro-2-chroman-methanol]]	29 ± 28		29 ± 29	able to rescue survival of vitE depleted cultures to a certain extent		29 ± 16	32 ± 28	37 ± 23	< 25	< 25	< 25	36 ± 18	26 ± 13	can confer neuroprotection
